Experimental data: PubChem BioAssay AID1963963 (Molecular Pharmacology Branch, DTP, NCI, 2024)

System: 958667-338-R-J2-PDC tumor spheroids viability
Assay: Anticancer human tumor 958667-338-R-J2-PDC patient-derived colon adenocarcinoma cell line growth inhibition [PI3K]
Conditions: spheroids with HUVEC and MSC; for IC50: curve of first compound; for viability, T/C: stronger effect = lower value
How it was run: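 Viability of mixed-cell spheroids was determined after exposure to pairwise combinations, one partner being inavolisib, alpelisib, duvelisib or copanlisib. Highest tested concentration matched clinical Cmax where known and 10 microM where not, descending in half-log steps.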

[1] = second compound 0.00316 µM, first compound 0.0316 µM
[2] = second compound 0.00316 µM, first compound 0.1 µM
[3] = second compound 0.00316 µM, first compound 0.316 µM
[4] = second compound 0.00316 µM, first compound 1 µM
[5] = second compound 0.00316 µM, first compound 3.16 µM
[6] = second compound 0.00316 µM, first compound 10 µM
[7] = second compound 0.01 µM, first compound 0.0316 µM
[8] = second compound 0.01 µM, first compound 0.1 µM
[9] = second compound 0.01 µM, first compound 0.316 µM
[10] = second compound 0.01 µM, first compound 1 µM
[11] = second compound 0.01 µM, first compound 3.16 µM
[12] = second compound 0.01 µM, first compound 10 µM
[13] = second compound 0.0316 µM, first compound 0.0316 µM
[14] = second compound 0.0316 µM, first compound 0.1 µM
[15] = second compound 0.0316 µM, first compound 0.316 µM
[16] = second compound 0.0316 µM, first compound 1 µM
[17] = second compound 0.0316 µM, first compound 3.16 µM
[18] = second compound 0.0316 µM, first compound 10 µM
[19] = second compound 0.1 µM, first compound 0.0316 µM
[20] = second compound 0.1 µM, first compound 0.1 µM
[21] = second compound 0.1 µM, first compound 0.316 µM
[22] = second compound 0.1 µM, first compound 1 µM
[23] = second compound 0.1 µM, first compound 3.16 µM
[24] = second compound 0.1 µM, first compound 10 µM
[25] = second compound 0.316 µM, first compound 0.0316 µM
[26] = second compound 0.316 µM, first compound 0.1 µM
[27] = second compound 0.316 µM, first compound 0.316 µM
[28] = second compound 0.316 µM, first compound 1 µM
[29] = second compound 0.316 µM, first compound 3.16 µM
[30] = second compound 0.316 µM, first compound 10 µM
[31] = second compound 1 µM, first compound 0.0316 µM
[32] = second compound 1 µM, first compound 0.1 µM
[33] = second compound 1 µM, first compound 0.316 µM
[34] = second compound 1 µM, first compound 1 µM
[35] = second compound 1 µM, first compound 3.16 µM
[36] = second compound 1 µM, first compound 10 µM
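Further: spheroids exposed to compounds for seven days before readout.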

CC(C)NCC(C(=O)N1CCN(c2ncnc3c2C(C)CC3O)CC1)c1ccc(Cl)cc1 (stereo not drawn) + COc1c(OCCCN2CCOCC2)ccc2c3n(c(=NC(=O)c4cnc(N)nc4)nc12)CCN3
IC50 (second compound 0.00316 µM): > 10000 nM
IC50 (second compound 0.01 µM): > 10000 nM
IC50 (second compound 0.0316 µM): > 10000 nM
IC50 (second compound 0.1 µM): 4020 nM
IC50 (second compound 0.316 µM): < 31.6 nM
IC50 (second compound 1 µM): < 31.6 nM
viability, T/C [1]: 94.4%
viability, T/C [2]: 88%
viability, T/C [3]: 74%
viability, T/C [4]: 95.7%
viability, T/C [5]: 90.7%
viability, T/C [6]: 60.2%
viability, T/C [7]: 97.8%
viability, T/C [8]: 73.9%
viability, T/C [9]: 69%
viability, T/C [10]: 100%
viability, T/C [11]: 54.8%
viability, T/C [12]: 66.2%
viability, T/C [13]: 68.7%
viability, T/C [14]: 69.3%
viability, T/C [15]: 67.8%
viability, T/C [16]: 77.7%
viability, T/C [17]: 71.3%
viability, T/C [18]: 50.6%
viability, T/C [19]: 61.6%
viability, T/C [20]: 43.2%
viability, T/C [21]: 67.4%
viability, T/C [22]: 60.5%
viability, T/C [23]: 51.1%
viability, T/C [24]: 37.4%
viability, T/C [25]: 36.9%
viability, T/C [26]: 35.3%
viability, T/C [27]: 29.8%
viability, T/C [28]: 38.1%
viability, T/C [29]: 27.2%
viability, T/C [30]: 23.1%
viability, T/C [31]: 17.6%
viability, T/C [32]: 18.7%
viability, T/C [33]: 15.4%
viability, T/C [34]: 19.5%
viability, T/C [35]: 16.2%
viability, T/C [36]: 14.8%

CCN1CCN(Cc2ccc(Nc3ncc(F)c(-c4cc(F)c5nc(C)n(C(C)C)c5c4)n3)nc2)CC1 + COc1c(OCCCN2CCOCC2)ccc2c3n(c(=NC(=O)c4cnc(N)nc4)nc12)CCN3
IC50 (second compound 0.00316 µM): > 1000 nM
IC50 (second compound 0.01 µM): > 1000 nM
IC50 (second compound 0.0316 µM): 344 nM
IC50 (second compound 0.1 µM): 4.7 nM
IC50 (second compound 0.316 µM): < 3.16 nM
IC50 (second compound 1 µM): < 3.16 nM
viability, T/C (second compound 0.00316 µM, first compound 0.00316 µM): 100%
viability, T/C (second compound 0.00316 µM, first compound 0.01 µM): 106%
viability, T/C [1]: 82.9%
viability, T/C [2]: 67.2%
viability, T/C [3]: 68.3%
viability, T/C [4]: 64.3%
viability, T/C (second compound 0.01 µM, first compound 0.00316 µM): 69.7%
viability, T/C (second compound 0.01 µM, first compound 0.01 µM): 87.8%
viability, T/C [7]: 87.8%
viability, T/C [8]: 65.5%
viability, T/C [9]: 57.4%
viability, T/C [10]: 51.5%
viability, T/C (second compound 0.0316 µM, first compound 0.00316 µM): 67.5%
viability, T/C (second compound 0.0316 µM, first compound 0.01 µM): 61.2%
viability, T/C [13]: 58.6%
viability, T/C [14]: 57.3%
viability, T/C [15]: 48.4%
viability, T/C [16]: 46.1%
viability, T/C (second compound 0.1 µM, first compound 0.00316 µM): 53.9%
viability, T/C (second compound 0.1 µM, first compound 0.01 µM): 41.4%
viability, T/C [19]: 40.1%
viability, T/C [20]: 39%
viability, T/C [21]: 33.6%
viability, T/C [22]: 32.1%
viability, T/C (second compound 0.316 µM, first compound 0.00316 µM): 34.4%
viability, T/C (second compound 0.316 µM, first compound 0.01 µM): 33.4%
viability, T/C [25]: 33.8%
viability, T/C [26]: 22.3%
viability, T/C [27]: 22.2%
viability, T/C [28]: 25.3%
viability, T/C (second compound 1 µM, first compound 0.00316 µM): 16.9%
viability, T/C (second compound 1 µM, first compound 0.01 µM): 14.7%
viability, T/C [31]: 16.5%
viability, T/C [32]: 14.3%
viability, T/C [33]: 16.6%
viability, T/C [34]: 18.1%

Cn1ncc(Cl)c1-c1cc(C(=O)NC(CN)Cc2cccc(F)c2)sc1Cl (stereo not drawn) + COc1c(OCCCN2CCOCC2)ccc2c3n(c(=NC(=O)c4cnc(N)nc4)nc12)CCN3
IC50 (second compound 0.00316 µM): 3410 nM
IC50 (second compound 0.01 µM): 3240 nM
IC50 (second compound 0.0316 µM): 1700 nM
IC50 (second compound 0.1 µM): 696 nM
IC50 (second compound 0.316 µM): < 31.6 nM
IC50 (second compound 1 µM): < 31.6 nM
viability, T/C [1]: 89.1%
viability, T/C [2]: 109%
viability, T/C [3]: 75.5%
viability, T/C [4]: 76.2%
viability, T/C [5]: 46.4%
viability, T/C [6]: 43%
viability, T/C [7]: 88.9%
viability, T/C [8]: 76.7%
viability, T/C [9]: 87.8%
viability, T/C [10]: 75.5%
viability, T/C [11]: 50.6%
viability, T/C [12]: 32%
viability, T/C [13]: 90.3%
viability, T/C [14]: 74.6%
viability, T/C [15]: 76.2%
viability, T/C [16]: 58.6%
viability, T/C [17]: 38.9%
viability, T/C [18]: 26.5%
viability, T/C [19]: 59.4%
viability, T/C [20]: 65.7%
viability, T/C [21]: 64.5%
viability, T/C [22]: 43.5%
viability, T/C [23]: 27.9%
viability, T/C [24]: 21.1%
viability, T/C [25]: 44.9%
viability, T/C [26]: 38.8%
viability, T/C [27]: 32.9%
viability, T/C [28]: 31.6%
viability, T/C [29]: 21.1%
viability, T/C [30]: 14.1%
viability, T/C [31]: 20.8%
viability, T/C [32]: 18.2%
viability, T/C [33]: 19.9%
viability, T/C [34]: 20.5%
viability, T/C [35]: 15.9%
viability, T/C [36]: 12.5%

Cn1nccc1Nc1nccc(-c2ccn(C(CO)c3ccc(Cl)c(F)c3)c(=O)c2)n1 (stereo not drawn) + COc1c(OCCCN2CCOCC2)ccc2c3n(c(=NC(=O)c4cnc(N)nc4)nc12)CCN3
IC50 (second compound 0.00316 µM): 9710 nM
IC50 (second compound 0.01 µM): 7700 nM
IC50 (second compound 0.0316 µM): 2720 nM
IC50 (second compound 0.1 µM): 1270 nM
IC50 (second compound 0.316 µM): < 31.6 nM
IC50 (second compound 1 µM): < 31.6 nM
viability, T/C [1]: 93.8%
viability, T/C [2]: 98.4%
viability, T/C [3]: 97.9%
viability, T/C [4]: 83.5%
viability, T/C [5]: 67.1%
viability, T/C [6]: 49.3%
viability, T/C [7]: 98.6%
viability, T/C [8]: 100%
viability, T/C [9]: 99.1%
viability, T/C [10]: 83.3%
viability, T/C [11]: 81.6%
viability, T/C [12]: 41.2%
viability, T/C [13]: 80.3%
viability, T/C [14]: 86.7%
viability, T/C [15]: 83.1%
viability, T/C [16]: 57.1%
viability, T/C [17]: 52.3%
viability, T/C [18]: 25.6%
viability, T/C [19]: 58.6%
viability, T/C [20]: 55.4%
viability, T/C [21]: 60%
viability, T/C [22]: 55.6%
viability, T/C [23]: 27.7%
viability, T/C [24]: 12%
viability, T/C [25]: 30.9%
viability, T/C [26]: 42.4%
viability, T/C [27]: 28.8%
viability, T/C [28]: 31.9%
viability, T/C [29]: 15.4%
viability, T/C [30]: 1.75%
viability, T/C [31]: 16.9%
viability, T/C [32]: 13.1%
viability, T/C [33]: 18.1%
viability, T/C [34]: 13.6%
viability, T/C [35]: 3.23%
viability, T/C [36]: 1.67%
